These results are taken from ChEMBL document CHEMBL1150276, “2-amino-1,3-thiazol-4(5H)-ones as potent and selective 11beta-hydroxysteroid dehydrogenase type 1 inhibitors: enzyme-ligand co-crystal structure and demonstration of pharmacodynamic effects in C57Bl/6 mice” (J Med Chem, 2008).

Data set [1] addresses 11-beta-hydroxysteroid dehydrogenase 1 (Homo sapiens, UniProt P28845).
Description: Binding affinity to human 11beta HSD1 expressed in Escherichia coli by scintillation proximity assay
The subject of a further data set is Rattus norvegicus. As to the kind of experiment: AUC(0 to infinity) in rat at 2 mg/kg, po. Format: ADME, organism-based, Plasma. More on the design: time infinity, dose 2 mg/kg, route oral. Particulars: in vivo.
Data set [2] concerns the target 11-beta-hydroxysteroid dehydrogenase 1 (Rattus norvegicus, UniProt P16232). As to the kind of experiment: Binding affinity to rat recombinant 11beta HSD1 by scintillation proximity assay. On the technique in general: Scintillation proximity formats need no separation of bound from free tracer.
Data set [3] is described as follows: Volume of distribution at steady state in rat at 0.5 mg/kg, iv. The format is ADME, organism-based. On the set-up: dose 0.5 mg/kg, route intravenous. Conditions: in vivo, read-out: Vdss.
The target in data set [4] is T1, 11-beta-hydroxysteroid dehydrogenase type 2 (Homo sapiens, UniProt P80365).
T1 sequence (P80365 whole entry): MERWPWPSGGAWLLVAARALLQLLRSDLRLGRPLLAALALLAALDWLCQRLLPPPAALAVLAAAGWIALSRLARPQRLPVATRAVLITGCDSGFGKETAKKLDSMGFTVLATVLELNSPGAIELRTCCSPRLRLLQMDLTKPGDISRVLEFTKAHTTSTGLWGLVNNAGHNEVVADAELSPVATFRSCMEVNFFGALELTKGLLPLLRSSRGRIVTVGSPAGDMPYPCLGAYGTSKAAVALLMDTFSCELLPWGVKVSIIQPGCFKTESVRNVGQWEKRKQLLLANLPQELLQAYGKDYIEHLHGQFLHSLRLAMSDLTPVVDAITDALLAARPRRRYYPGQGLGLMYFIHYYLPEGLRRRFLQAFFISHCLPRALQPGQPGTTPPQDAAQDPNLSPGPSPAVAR
As to the kind of experiment: biochemical.
Description: Binding affinity to human 11beta HSD2 in HEK293 cells by scintillation proximity assay

Data set [5] is described as follows: Half life in rat at 2 mg/kg, po. Format: ADME, organism-based. More on the design: dose 2 mg/kg, route oral. Conditions: in vivo.
Data set [6] concerns the target 11-beta-hydroxysteroid dehydrogenase 1 (Mus musculus, UniProt P50172). Briefly: Binding affinity to C57BL/6 mouse recombinant 11beta HSD1 by scintillation proximity assay.
A short description of data set [7]: Plasma concentration in C57BL/6 mouse plasma at 30 mg/kg, po after 2 hrs. Format: ADME, organism-based. On the set-up: dose 30 mg/kg, route oral.
Data set [8] has as its system Plasma. Briefly: Protein binding in C57BL/6 mouse plasma assessed as fraction unbound at 30 mg/kg, po after 2 hrs. Conditions: in vivo. The format is ADME, organism-based. On the set-up: dose 30 mg/kg, route oral.
Data set [9] can be described thus: Clearance in rat at 0.5 mg/kg, iv. Format: ADME, organism-based. On the set-up: dose 0.5 mg/kg, route intravenous. Particulars: in vivo.
The nature of data set [10]: Plasma concentration in C57BL/6 mouse plasma at 30 mg/kg, po after 6 hrs. The format is ADME, organism-based. On the set-up: dose 30 mg/kg, route oral.
The nature of data set [11]: Tmax in rat at 2 mg/kg, po. On the set-up: dose 2 mg/kg, route oral. Conditions: in vivo. Format: ADME, organism-based.
Data set [12] can be described thus: Ratio of Ki for mouse 11beta HSD1 over Ki for human 11beta HSD1.
For data set [13], the system named is Plasma. Briefly: Protein binding in C57BL/6 mouse plasma assessed as fraction unbound at 30 mg/kg, po after 6 hrs. Format: ADME, organism-based. More on the design: dose 30 mg/kg, route oral. Conditions: in vivo.
Data set [14] has as its system Mus musculus. As to the kind of experiment: Ex vivo inhibition of 11beta HSD1 activity in C57BL/6 mouse adipose tissue at 30 mg/kg, po after 2 hrs. Format: functional. More on the design: scale not given: the % may be the effect or the level left.
Data set [15] can be described thus: Oral bioavailability in rat at 2 mg/kg. Format: ADME, organism-based. Particulars: in vivo.
In data set [16] the test system is Mus musculus. Briefly: Ex vivo inhibition of 11beta HSD1 activity in C57BL/6 mouse liver at 30 mg/kg, po after 6 hrs. Format: functional. On the set-up: scale not given: the % may be the effect or the level left.
The test system of data set [17] is Mus musculus. As to the kind of experiment: Ex vivo inhibition of 11beta HSD1 activity in C57BL/6 mouse liver at 30 mg/kg, po after 2 hrs. Format: functional. On the set-up: scale not given: the % may be the effect or the level left.
Data set [18] relates to Mus musculus. Briefly: Ex vivo inhibition of 11beta HSD1 activity in C57BL/6 mouse adipose tissue at 30 mg/kg, po after 6 hrs. Format: functional. On the set-up: scale not given: the % may be the effect or the level left.

Structures are written as SMILES.

The Ki is the equilibrium dissociation constant of an inhibitor or competing ligand from its target. A word on the AUC: it is the area under the concentration-time curve, a measure of exposure. In general, IC50 refers to the point on the concentration scale where inhibition reaches its midpoint. What is called half-life is the time needed for the level to fall by half in the phase considered. As usually defined, the clearance is a measure of how efficiently the substance is removed, as volume per time. One may read the Tmax as the time from dosing to the highest level. The term bioavailability denotes the share of a dose that reaches the circulation, judged against a reference dose that is usually intravenous.

Sequence of 11-beta-hydroxysteroid dehydrogenase 1 (Homo sapiens, UniProt P28845) (P28845 whole entry): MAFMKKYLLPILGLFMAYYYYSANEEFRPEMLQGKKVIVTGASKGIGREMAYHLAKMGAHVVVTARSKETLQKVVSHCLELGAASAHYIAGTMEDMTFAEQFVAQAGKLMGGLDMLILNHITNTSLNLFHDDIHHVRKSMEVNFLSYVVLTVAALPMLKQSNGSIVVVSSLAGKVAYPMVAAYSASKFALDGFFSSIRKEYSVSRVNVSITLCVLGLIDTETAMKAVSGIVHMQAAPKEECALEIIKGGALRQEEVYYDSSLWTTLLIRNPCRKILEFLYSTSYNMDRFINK
Sequence of 11-beta-hydroxysteroid dehydrogenase 1 (Mus musculus, UniProt P50172) (P50172 whole entry): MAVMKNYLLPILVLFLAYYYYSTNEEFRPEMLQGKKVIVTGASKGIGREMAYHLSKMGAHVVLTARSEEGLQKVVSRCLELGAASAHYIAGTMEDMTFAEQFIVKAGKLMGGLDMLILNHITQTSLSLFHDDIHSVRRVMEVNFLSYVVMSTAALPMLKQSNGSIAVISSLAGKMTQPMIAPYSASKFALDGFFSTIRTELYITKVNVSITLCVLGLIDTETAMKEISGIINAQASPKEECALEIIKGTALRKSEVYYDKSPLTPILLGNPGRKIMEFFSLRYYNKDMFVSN
Sequence of 11-beta-hydroxysteroid dehydrogenase 1 (Rattus norvegicus, UniProt P16232) (P16232 whole entry): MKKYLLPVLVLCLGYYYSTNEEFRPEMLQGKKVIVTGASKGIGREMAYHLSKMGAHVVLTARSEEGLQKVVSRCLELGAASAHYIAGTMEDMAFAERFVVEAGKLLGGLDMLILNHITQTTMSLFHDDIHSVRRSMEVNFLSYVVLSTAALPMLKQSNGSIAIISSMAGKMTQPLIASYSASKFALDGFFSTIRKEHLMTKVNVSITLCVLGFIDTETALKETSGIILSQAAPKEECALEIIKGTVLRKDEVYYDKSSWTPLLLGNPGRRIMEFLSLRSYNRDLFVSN

The compound `CCCC1(C)SC(NCC2CCCCC2)=NC1=O` (racemic) yielded an inhibitory constant (Ki) in data set [1] of 0.034 µM.
Compound `O=C1N=C(NC23CC4CC(CC2C4)C3)SC12CCCC2` displayed an AUC in the data set on Rattus norvegicus of 0.175 µg·h/mL. Besides, the Ki in data set [2] worked out at 0.18 µM; in [6], 0.12 µM; in data set [1], 0.003 µM. The Vd in [3] was determined as 1.84 L/kg. Also, in data set [4], the IC50 is > 10 µM. This compound also showed a half-life in data set [5] of 2 h. In data set [7], this compound gave a concentration at 2 h of 20 µM. Besides, the Activity in the data set with Plasma [8] is 120 nM; with Plasma [13], 44 nM; in the data set with Mus musculus [14], 86%; in the data set on Mus musculus [16], 79%; with Mus musculus [17], 89%; with Mus musculus [18], 87%. The Fu in the data set with Plasma [8] and in the data set with Plasma [13] was 0.63% throughout. This compound showed a clearance in data set [9] of 6.25 L/h/kg. Besides, the concentration at 6 h in data set [10] came out at 7.3 µM. In addition, in data set [11], the Tmax came out at 2.5 h. For the same compound, in data set [12], the Ratio Ki is 40. The compound also showed a bioavailability in data set [15] of 45%.
For the compound `CCC1(CC)SC(NC23CC4CC(CC(C4)C2)C3)=NC1=O`, the inhibitory constant (Ki) in data set [1] was 0.02 µM.
On the same count and under the same terms, as for `CCC1(C)SC(NCC2CCCCC2)=NC1=O` (racemic), the figure is 0.064 µM; as for `CCC1(C)SC(NC23CC4CC(CC(C4)C2)C3)=NC1=O` (racemic), 0.024 µM.
Regarding `CCCC1(C)SC(NC2CCCCCC2)=NC1=O` (racemic), in data set [4], the IC50 was > 10 µM. The compound further returned an inhibition constant Ki in data set [1] of 0.032 µM.
In data set [1], `CCC1(C)SC(NC2C3CCC2CC3)=NC1=O` (racemic) yielded a Ki of 0.372 µM.
Same read-out and setting: as for `CCC1(C)SC(NC2C(C)(C)C2(C)C)=NC1=O` (racemic), the figure is 0.058 µM; as for `CCCC1(C)SC(NC23CC4CC(CC(C4)C2)C3)=NC1=O` (racemic), 0.024 µM.
With `CCC1(C)SC(NC23CCC(CC2)C3)=NC1=O` (racemic), the IC50 in data set [4] was > 10 µM. In [1], this compound had a Ki of 0.073 µM.
Compound `CCC1(C)SC(NC2CCCCC2)=NC1=O` (racemic) showed a Ki in [1] of 0.126 µM.
As for `CCCC1(C)SC(NC2CCCCCCC2)=NC1=O` (racemic), the IC50 in data set [4] was > 10 µM. Further, the Ki in data set [1] was found to be 0.028 µM.
`CCCC1(C)SC(NC2C3CCC2CC3)=NC1=O` (racemic): the IC50 in [4] is > 10 µM. The same compound registered a Ki in data set [1] of 0.149 µM.
Taken in the same sequence, the figures for `CCC1SC(Nc2ccccc2C)=NC1=O` (configuration not stated) were > 10 µM and 0.189 µM.
Taken in the same sequence, the figures for `CCC1(CC)SC(NC2CCCCCCC2)=NC1=O` were > 10 µM and 0.026 µM.
Compound `CCCC1(C)SC(NC2CCCCC2)=NC1=O` (racemic) came in with a Ki in [1] of 0.055 µM.
The same measure, in the same setting: as for `CCCC1(C)SC(NC23CC4CC(CC2C4)C3)=NC1=O` (racemic), the figure is 0.012 µM.
On to `CCC1(C)SC(NC2CCCCCCC2)=NC1=O` (racemic), for which, in data set [4], the IC50 is > 10 µM. The compound further had a Ki in data set [1] of 0.047 µM.
Compound `CCCC1(C)SC(NC2C(C)(C)C2(C)C)=NC1=O` (racemic) yielded a Ki in data set [1] of 0.038 µM.
On to `CCC1(C)SC(NC2CCCCCC2)=NC1=O` (racemic), for which the IC50 in data set [4] was > 10 µM. In addition, the Ki in [1] turned out to be 0.082 µM.
Taken in the same sequence, the figures for `CCC1(C)SC(NC23CC4CC(CC2C4)C3)=NC1=O` (racemic) were > 10 µM and 0.013 µM.
As to `CCC1(C)SC(Nc2ccccc2F)=NC1=O` (configuration not stated), in data set [1], the Ki came out at 0.151 µM.
In the case of `CCC1(CC)SC(NC23CC4CC(CC2C4)C3)=NC1=O`, the IC50 in [4] was > 10 µM. The Ki in data set [1] came out at 0.013 µM.
With `CCCC1(C)SC(NC23CCC(CC2)C3)=NC1=O` (racemic), in data set [1], the Ki was determined as 0.025 µM.
Take `O=C1N=C(NC2CCCCCCC2)SC12CCCC2`: the 50% inhibitory concentration (IC50) in data set [4] is > 10 µM. In data set [1], the Ki amounted to 0.014 µM.
In [1], `O=C1N=C(NC23CC4CC(CC(C4)C2)C3)SC12CCCC2` came in with an inhibition constant Ki of 0.028 µM.
